33 molecules from patent EP0840609B1, “USE OF UNSUBSTITUTED AND SUBSTITUTED N-(PYRROL-1-YL)PYRIDINAMINES AS ANTICONVULSANT AGENTS” (Aventis Pharmaceuticals Inc., priority 1995, dated 1997) can be followed below.

Counter-ions that a name gives are not always drawn.

The subject of test [1] is brain membrane sodium channels. To be noted: vesicular preparation of male Wistar rat cortices, 25 nM [^3H]batrachotoxin, 60 minutes at 25°C; read-out: Inhibition of [^3H]Batrachotoxin Binding IC50.
Another test relates to Male CD-1 mice. Briefly: Supramaximal electroshock in mice (block of tonic seizure / extensor tonus). The class given is in vivo. To be noted: intraperitoneally; for ED50: read-out: INHIBITION OF SUPRAMAXIMAL ELECTROSHOCK IN MICE ED50. The method, then: This procedure is used as to predict anticonvulsant activity of a test compound in vivo by its ability to block a full tonic seizure induced by a supramaximal electroshock stimulation as an indication of efficacy in preventing grand mal seizures.
Male CD-1 mice (Charles River) weighing 18-30 grams were housed in accordance with the "NIH Guide to Care and Use of Laboratory Animals" (National Institutes of Health Care Publication 85-23, revised 1985) with a 12 hour light/dark cycle and free access to food and water. On the day of testing, animals are brought to the laboratory and randomly assigned to groups of six for the time course experiments and to test groups of ten for the dose-response experiments.
The apparatus used for the test was the Wahlquist Electroshock Stimulator (Model H), which has a power source of 120 volts ac. A current of 15.5 mA lasting for 300 msec was delivered by placing the terminals of the stimulator across the eyes of the animal. This stimulus results in a tonic seizure, defined as a brief period of hindlimb flexion followed by a prolonged period of hindlimb extension. […] Protection is calculated as a normalized percent inhibition relative to a vehicle treated control group.
A time course is performed to determine the peak time of drug action and then a dose response performed at the peak time to determine drug potency. Mice are dosed in a randomized fashion using a total of 4 dose groups and one vehicle control group. The ED50 value and 95% confidence limits are calculated by a computerized Litchfield and Wilcoxon analysis.
Drugs are prepared dissolved in distilled water and, if insoluble a drop of surfactant is added.. Drugs are routinely administered intraperitoneally for this test and given in a dosage volume of 10 ml/kg.
In general terms: The maximal electroshock test induces tonic seizures with an electrical stimulus.

The mark [2] stands for this setting: Mus musculus, ip, dose response at peak time.

As usually defined, the IC50 is the midpoint of a concentration-inhibition curve. Regarding `CCCN(c1ccncc1F)n1ccc2cc(O)ccc21` [1-[Propyl-4-(3-fluoropyridinyl)amino]-1H-indol-5-ol hydrochloride], the IC50 in test [1] is 70 µM. Same read-out and setting: with `NCCc1cn(Nc2ccncc2)c2ccccc12` [3-Aminoethyl-N-(4-pyridinyl)-1H-indol-1-amine dimaleate] the figure was 44 µM; with `CCCN(c1ccncc1)n1cc(CN)c2ccccc21` [3-Aminomethyl-N-propyl-N-(4-pyridinyl)-1H-indol-1-amine dihydrochloride], 10 µM; with `Clc1cn(Nc2ccncc2)c2ccccc12` [3-Chloro-N-(4-pyridinyl)-1H-indol-1-amine salicylate], 11 µM.

Regarding `CCCN(c1ccncc1)n1cc(Cl)c2ccccc21` [3-Chloro-N-propyl-N-(4-pyridinyl)-1H-1-amine hydrochloride], in test [1], the concentration for half-maximal inhibition (IC50) turned out to be 10 µM. `CCc1cn(N(C)c2ccncc2)c2ccccc12` [3-Ethyl-N-methyl-N-(4-pyridinyl)-1H-indol-1-amine hydrochloride]: the IC50 in test [1] stood at 12 µM. For `CCCN(c1ccncc1F)n1cccc1` [3-Fluoro-N-propyl-N-(1H-pvrrol-1-yl)-4-pyridinamine hydrochloride], the half-inhibitory concentration (IC50) in test [1] was 46 µM. Still for that read-out and setting: with `Cc1cn(Nc2ccncc2)c2ccc(O)cc12` [3-Methyl-1-(4-pyridinylamino)-1H-indol-5-ol] the figure was 20 µM; with `CCCN(c1ccncc1)n1cc(C)c2cc(O)ccc21` [3-Methyl-1-(propyl-4-pyridinylamino)-1H-indol-5-ol hemi-oxalate], 21 µM. In general, ED50 refers to the midpoint of the dose-response relation. In the case of `Cc1cn(Nc2ccncc2)c2ccccc12.O=C(O)C(=O)O` [3-Methyl-N-(4-pyridinyl)-1H-indol-1-amine oxalate], the IC50 in test [1] came out at 11 µM. The ED50 in the test on Male CD-1 mice (setting [2]) came to 13 mg/kg. Turning to `CCCN(c1ccncc1)n1cc(C)c2ccccc21.O=C(O)/C=C\C(=O)O` [3-Methyl-N-propyl-N-(4-pvridinyl)-1H-indol-1-amine maleate], the “INHIBITION OF SUPRAMAXIMAL ELECTROSHOCK IN MICE ED50” value in the test with Male CD-1 mice (dose response at peak time) is reported as 14.4 mg/kg. For the molecule `Nc1cnccc1Nn1ccc2ccccc21` [4-[N-(1H-indol-1-yl)]-3,4-pyridinamine, 4-[N-(1H-indol-1-yl)]-3,4-pyridinamine hemihydrate], the 50% inhibitory concentration (IC50) in test [1] was determined as 22 µM. The same measure, in the same setting: the value for `CCCN(c1ccncc1)n1ccc2cc(Br)ccc21` [5-Bromo-N-propyl-N-(4-pyridinyl)-1H-indol-1-amine maleate] was 14 µM; that for `Brc1ccc2c(ccn2Nc2ccncc2)c1` [5-bromo-N-(4-pyridinyl)-1H-indol-1-amine, 5-Bromo-N-(4-pyridinyl)-1H-indol-1-amine maleate] was 23 µM.

As to `NC(=O)N1c2ccccc2C=Cc2ccccc21` [Carbamazepine, reference compound], the IC50 in test [1] turned out to be 94 µM. The ED50 in the test with Male CD-1 mice (setting [2]) was found to be 18.6 mg/kg. With `O=C1NC(=O)C(c2ccccc2)(c2ccccc2)N1` [Diphenylhydantoin, reference compound], the ED50 in the test on Male CD-1 mice (setting [2]) was found to be 9.4 mg/kg.

`CC(C)N(c1ccncc1)n1ccc2ccccc21` [N-(1-Methylethyl)-N-(4-pyridinyl)-1H-indol-1-amine maleate]: the IC50 in test [1] is 9 µM.

With `c1ccn(Nc2ccncc2)c1` [N-(1H-pyrrol-1-yl)-4-pyridinamine, N-(1H-Pyrrol-1-yl)-4-pyridinamine], the half-inhibitory concentration (IC50) in test [1] is 40 µM. On to `CCCN(c1ccncc1)n1c(C)ccc1C.O=C(O)/C=C\C(=O)O` [N-(2,5-Dimethyl-1H-pyrrol-1-yl)-N-(n-propyl)-4-pyridinamine maleate], for which the median effective dose (ED50) in the test with Male CD-1 mice (setting [2]) came out at 50.1 mg/kg. Regarding `CC(C)CN(c1ccncc1)n1ccc2ccccc21` [N-(2-Methylpropyl)-N-(4-pyridinyl)-1H-indol-1-amine maleate], the IC50 in test [1] is 9 µM.

For `c1ccc(Nn2ccc3ccccc32)nc1` [N-(2-pyridinyl)-1H-indol-1-amine, N-(2-Pyridinyl)-1H-indol-1-amine], the IC50 in test [1] amounted to 12 µM. As to `Clc1cnccc1Nn1ccc2ccccc21` [N-(3-Chloro-4-pyridinyl)-1H-indol-1-amine hydrochloride], the IC50 in test [1] came out at 14 µM. In the case of `Cc1cn(Nc2ccncc2Cl)c2ccccc12` [N-(3-Chloro-4-pyridinyl)-3-methyl-1H-indol-1-amine hydrochloride], in test [1], the half-inhibitory concentration (IC50) stood at 29 µM. The same measure, in the same setting: with `CCCN(c1ccncc1Cl)n1cc(C)c2ccccc21` [N-(3-Chloro-4-pyridinyl)-3-methyl-N-propyl-1H-indol-1-amine] the figure was 44 µM; with `CCCN(c1ccncc1Cl)n1ccc2ccccc21` [N-(3-Chloro-4-pyridinyl)-N-propyl-1H-indol-1-amine hydrochloride], 32 µM; with `Cc1cn(Nc2ccncc2F)c2ccccc12` [N-(3-Fluoro-4-pyridinyl)-3-methyl-1H-indol-1-amine], 42 µM. Usually inhibition stands for how much of the control response was suppressed. For `CCCN(c1ccncc1F)n1cc(C)c2ccccc21` [N-(3-Fluoro-4-pyridinyl)-N-propyl-3-methyl-1H-indol-1-amine hydrochloride], the IC50 in test [1] was determined as 31 µM. In the test on Male CD-1 mice (Mus musculus, ip, @ 30 mpk, read-out: Inhibition of supramaximal electroshock (protection, normalized percent inhibition)), the inhibition at 30 mg/kg came to 50%. The inhibition at 60 mg/kg with Male CD-1 mice (Mus musculus, ip, @ 60 mpk, read-out: Inhibition of supramaximal electroshock (protection, normalized percent inhibition)) was determined as 50%. As to `Cc1cnccc1Nn1ccc2ccccc21` [N-(3-Methyl-4-pyridinyl)-1H-indol-1-amine], the IC50 in test [1] amounted to 21 µM.

With `c1cncc(Nn2ccc3ccccc32)c1` [N-(3-pyridinyl)-1H-indol-1-amine, N-(3-Pyridinyl)-1H-indol-1-amine], the IC50 in test [1] was determined as 12 µM. Same read-out and setting: with `c1ccc2c(c1)ccn2Nc1ccncc1` [N-(4-pyridinyl)-1H-indol-1-amine, N-(4-Pyridinyl)-1H-indol-1-amine maleate] the figure was 18 µM. On the same count and under the same terms, the value for `CCN(c1ccncc1)n1cccc1` [N-Ethyl-N-(1H-pyrrol-1-yl)-4-pyridinamine hydrochloride] was 86 µM. Still for that read-out and setting: with `CCCN(c1ccncc1)n1cccc1` [N-Propyl-N-(1H-pyrrol-1-yl)-4-pyridinamine hydrochloride] the figure was 66 µM.

Take `CCCN(c1ccncc1)n1ccc2ccccc21.Cl` [N-Propyl-N-(4-pyridinyl)-1H-indol-1-amine hydrochloride]: the IC50 in test [1] amounted to 5 µM. The ED50 in the test on Male CD-1 mice (setting [2]) was 14.2 mg/kg.
